# Reference: ChEMBL document CHEMBL3286182, “4-aminoquinolone piperidine amides: noncovalent inhibitors of DprE1 with long residence time and potent antimycobacterial activity” (J Med Chem, 2014)
# Tested on: Mycobacterium tuberculosis
# Experiment: Antimycobacterial activity against Mycobacterium tuberculosis over expressing DprE1 Y314H mutant after 5 days by standard microdilution method
# Format: functional
row,Compound,MIC
1,Cn1ncc(C(=O)N2CCC(Nc3cc(=O)[nH]c4ccccc34)CC2)c1Cl,100 µM
2,Cn1ncc(C(=O)N2CCC(Nc3cc(=O)[nH]c4ccc(F)cc34)CC2)c1Cl,25 µM
3,Cn1ncc(C(=O)N2CCC(Nc3cc(=O)[nH]c4cc(F)c(F)cc34)CC2)c1Cl,50 µM
4,Cn1ncc(C(=O)N2[C@@H]3CC[C@H]2C[C@@H](Nc2cc(=O)[nH]c4ccc(F)cc24)C3)c1Cl,<0.39 µM
5,Cc1onc(C(=O)N2CCC(Nc3cc(=O)n(C)c4cc(F)c(F)cc34)CC2)c1C,<25 µM
6,C[C@H]1C[C@H](Nc2cc(=O)[nH]c3cc(F)c(F)cc23)CCN1C(=O)c1cnn(C)c1Cl,0.78 µM

# Tested on: Mycobacterium tuberculosis
# Experiment: Antimycobacterial activity against BTZ043-resistant Mycobacterium tuberculosis over expressing DprE1 C387S mutant after 5 days by standard microdilution method
# Format: functional
row,Compound,MIC
1,Cn1ncc(C(=O)N2CCC(Nc3cc(=O)[nH]c4ccccc34)CC2)c1Cl,100 µM
2,Cn1ncc(C(=O)N2CCC(Nc3cc(=O)[nH]c4ccc(F)cc34)CC2)c1Cl,25 µM
3,Cn1ncc(C(=O)N2CCC(Nc3cc(=O)[nH]c4cc(F)c(F)cc34)CC2)c1Cl,3.12 µM
4,Cn1ncc(C(=O)N2[C@@H]3CC[C@H]2C[C@@H](Nc2cc(=O)[nH]c4ccc(F)cc24)C3)c1Cl,1.56 µM
5,Cc1onc(C(=O)N2CCC(Nc3cc(=O)n(C)c4cc(F)c(F)cc34)CC2)c1C,6.25 µM
6,C[C@H]1C[C@H](Nc2cc(=O)[nH]c3cc(F)c(F)cc23)CCN1C(=O)c1cnn(C)c1Cl,6.25 µM
7,COc1nc2ccc(Br)cc2cc1[C@@H](c1ccccc1)[C@@](O)(CCN(C)C)c1cccc2ccccc12 [BEDAQUILINE],0.4 µM
8,C[C@H]1COC2(CCN(c3nc(=O)c4cc(C(F)(F)F)cc([N+](=O)[O-])c4s3)CC2)O1 [BTZ-043],25 µM
9,NNC(=O)c1ccncc1 [ISONIAZID],0.45 µM
10,COc1c(N2C[C@@H]3CCCN[C@@H]3C2)c(F)cc2c(=O)c(C(=O)O)cn(C3CC3)c12 [MOXIFLOXACIN],0.08 µM

# Tested on: Mycobacterium tuberculosis
# Experiment: Antimycobacterial activity against moxifloxacin-resistant Mycobacterium tuberculosis clone 4.1 over expressing DprE1 mutant after 5 days by standard microdilution method
# Format: functional
row,Compound,MIC
1,Cn1ncc(C(=O)N2CCC(Nc3cc(=O)[nH]c4ccccc34)CC2)c1Cl,1.6 µM
2,Cn1ncc(C(=O)N2CCC(Nc3cc(=O)[nH]c4ccc(F)cc34)CC2)c1Cl,1.6 µM
3,Cn1ncc(C(=O)N2CCC(Nc3cc(=O)[nH]c4cc(F)c(F)cc34)CC2)c1Cl,0.2 µM
4,COc1nc2ccc(Br)cc2cc1[C@@H](c1ccccc1)[C@@](O)(CCN(C)C)c1cccc2ccccc12 [BEDAQUILINE],1.6 µM
5,C[C@H]1COC2(CCN(c3nc(=O)c4cc(C(F)(F)F)cc([N+](=O)[O-])c4s3)CC2)O1 [BTZ-043],0.003 µM
6,NNC(=O)c1ccncc1 [ISONIAZID],0.45 µM

# Tested on: Mycobacterium tuberculosis
# Experiment: Antimycobacterial activity against TMC207R-resistant Mycobacterium tuberculosis clone 8.1 over expressing DprE1 mutant after 5 days by standard microdilution method
# Format: functional
row,Compound,MIC
1,Cn1ncc(C(=O)N2CCC(Nc3cc(=O)[nH]c4ccccc34)CC2)c1Cl,3.1 µM
2,Cn1ncc(C(=O)N2CCC(Nc3cc(=O)[nH]c4ccc(F)cc34)CC2)c1Cl,1.6 µM
3,Cn1ncc(C(=O)N2CCC(Nc3cc(=O)[nH]c4cc(F)c(F)cc34)CC2)c1Cl,0.2 µM
4,COc1nc2ccc(Br)cc2cc1[C@@H](c1ccccc1)[C@@](O)(CCN(C)C)c1cccc2ccccc12 [BEDAQUILINE],50 µM
5,C[C@H]1COC2(CCN(c3nc(=O)c4cc(C(F)(F)F)cc([N+](=O)[O-])c4s3)CC2)O1 [BTZ-043],0.002 µM
6,NNC(=O)c1ccncc1 [ISONIAZID],0.23 µM
